Laboratory results published in ChEMBL document CHEMBL4184315, “Discovery of Inhibitor of Wnt Production 2 (IWP-2) and Related Compounds As Selective ATP-Competitive Inhibitors of Casein Kinase 1 (CK1) δ/ε” (J Med Chem, 2018).
Activity calls are given as the source filed them. No cut-off for these calls is given here.

Tests used:
MIA PaCa-2 = assay: Antiproliferative activity against human MIAPaCa2 cells after 48 hrs by MTT assay; assay type: functional, cell-based; conditions: MIA PaCa-2, 48 h
[1] = target: Casein kinase I isoform delta (Rattus norvegicus, UniProt Q06486, M82F); assay: Inhibition of rat GST-tagged CK1delta M82F mutant at 10 uM using alpha-casein as substrate after 30 mins in presence of [gamma-32P]-ATP by Cherenkov counting method
[2] = Selectivity ratio of IC50 for human CK1epsilon to IC50 for full-length rat GST-tagged CK1delta
CAPAN-1 = assay: Antiproliferative activity against human Capan1 cells after 48 hrs by MTT assay; assay type: functional, cell-based; conditions: CAPAN-1, 48 h
[3] = target: T1, Casein kinase I isoform delta (Rattus norvegicus, UniProt Q06486); assay: Inhibition of full-length rat GST-tagged CK1delta using alpha-casein as substrate after 30 mins in presence of [gamma-32P]-ATP by Cherenkov counting method
[4] = target: Casein kinase I isoform delta (Rattus norvegicus) (UniProt Q06486); assay: Inhibition of full-length rat GST-tagged CK1delta at 10 uM using alpha-casein as substrate after 30 mins in presence of [gamma-32P]-ATP by Cherenkov counting method
HEK293 = assay: Antiproliferative activity against human HEK293 cells after 48 hrs by MTT assay; assay type: functional, cell-based; conditions: HEK293, 48 h
[5] = Selectivity ratio of IC50 for human CK1epsilon to IC50 for rat recombinant CK1delta kinase domain
[6] = Antiproliferative activity against human Panc89 cells after 48 hrs by MTT assay; assay type: functional, cell-based
[7] = target: T2, Casein kinase I isoform alpha (Bos taurus) (UniProt P67827); assay: Inhibition of bovine GST-tagged CK1alpha at 10 uM using alpha-casein as substrate after 30 mins in presence of [gamma-32P]-ATP by Cherenkov counting method
T2 sequence (whole entry): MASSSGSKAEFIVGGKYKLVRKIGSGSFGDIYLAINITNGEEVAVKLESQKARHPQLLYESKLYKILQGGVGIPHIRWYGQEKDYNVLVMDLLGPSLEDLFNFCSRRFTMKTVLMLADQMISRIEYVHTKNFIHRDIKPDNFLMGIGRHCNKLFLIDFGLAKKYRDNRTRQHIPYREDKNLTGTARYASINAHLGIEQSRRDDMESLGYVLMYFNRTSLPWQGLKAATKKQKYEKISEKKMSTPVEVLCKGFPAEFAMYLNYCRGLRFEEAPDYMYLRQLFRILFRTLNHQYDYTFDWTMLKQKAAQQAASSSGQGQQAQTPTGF

PANC-1 = assay: Antiproliferative activity against human PANC1 cells after 48 hrs by MTT assay; assay type: functional, cell-based; conditions: PANC-1, 48 h
Rattus norvegicus = organism: Rattus norvegicus; assay: Selectivity ratio of IC50 for full-length rat GST-tagged CK1delta to IC50 for rat GST-tagged CK1delta M82F mutant
HT-29 = assay: Antiproliferative activity against human HT-29 cells after 48 hrs by MTT assay; assay type: functional, cell-based; conditions: HT-29, 48 h
[8] = target: Casein kinase I isoform delta (Rattus norvegicus) (UniProt Q06486); assay: Inhibition of rat recombinant CK1delta kinase domain at 10 uM using alpha-casein as substrate after 30 mins in presence of [gamma-32P]-ATP by Cherenkov counting method
SW-620 = assay: Antiproliferative activity against human SW620 cells after 48 hrs by MTT assay; assay type: functional, cell-based; conditions: SW-620, 48 h
[9] = target: Casein kinase I isoform gamma-3 (Homo sapiens) (UniProt Q9Y6M4); assay: Inhibition of human GST-tagged CK1gamma3 at 10 uM using alpha-casein as substrate after 30 mins in presence of [gamma-32P]-ATP by Cherenkov counting method
[10] = target: T1, Casein kinase I isoform delta; assay: Inhibition of rat recombinant CK1delta kinase domain using alpha-casein as substrate after 30 mins in presence of [gamma-32P]-ATP by Cherenkov counting method
[11] = target: Casein kinase I isoform delta (Rattus norvegicus) (UniProt Q06486); assay: Ratio of IC50 for full-length rat GST-tagged CK1delta to IC50 for rat recombinant CK1delta kinase domain
[12] = Antiproliferative activity against human A818-6 cells after 48 hrs by MTT assay; assay type: functional, cell-based
[13] = target: Casein kinase I isoform delta (Rattus norvegicus) (UniProt Q06486); assay: Competitive inhibition of full-length rat GST-tagged CK1delta at IC50 using alpha-casein as substrate after 30 mins in presence of 10 to 500 uM ATP and [gamma-32P]-ATP by Cherenkov counting method
[14] = target: Casein kinase I isoform epsilon (Homo sapiens, UniProt P49674); assay: Inhibition of human recombinant CK1epsilon using alpha-casein as substrate after 30 mins in presence of [gamma-32P]-ATP by Cherenkov counting method
[15] = target: T2, Casein kinase I isoform alpha (Bos taurus); assay: Inhibition of bovine GST-tagged CK1alpha at 1 uM using alpha-casein as substrate after 30 mins in presence of [gamma-32P]-ATP by Cherenkov counting method
[16] = target: Casein kinase I isoform gamma-3 (Homo sapiens) (UniProt Q9Y6M4); assay: Inhibition of human GST-tagged CK1gamma3 at 1 uM using alpha-casein as substrate after 30 mins in presence of [gamma-32P]-ATP by Cherenkov counting method
[17] = target: T3, Protein-serine O-palmitoleoyltransferase porcupine (Homo sapiens, UniProt Q9H237); assay: Inhibition of porcupine in HEK293T cells transfected with Wnt3A-expressing vector assessed as suppression of Wnt/beta-catenin signaling after 22 hrs by Super-top flash reporter gene assay; assay type: cell-based
T3 sequence (Q9H237 whole entry): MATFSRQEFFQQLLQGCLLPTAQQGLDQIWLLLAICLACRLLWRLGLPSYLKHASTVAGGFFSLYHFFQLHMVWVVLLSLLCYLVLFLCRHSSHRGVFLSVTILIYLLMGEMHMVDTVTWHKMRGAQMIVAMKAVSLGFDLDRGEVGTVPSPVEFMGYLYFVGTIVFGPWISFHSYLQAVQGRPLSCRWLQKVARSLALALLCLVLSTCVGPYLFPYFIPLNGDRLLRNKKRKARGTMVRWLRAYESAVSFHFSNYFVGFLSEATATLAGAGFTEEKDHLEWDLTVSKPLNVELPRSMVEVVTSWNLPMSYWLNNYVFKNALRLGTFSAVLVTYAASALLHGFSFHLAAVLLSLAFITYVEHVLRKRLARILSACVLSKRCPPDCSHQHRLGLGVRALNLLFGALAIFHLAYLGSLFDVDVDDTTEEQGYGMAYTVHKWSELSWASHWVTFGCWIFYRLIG

HEK-293T [18] = assay: Upregulation of renilla luciferase expression in HEK293T cells up to 5 uM after 22 hrs in presence of Wnt3A-conditioned medium by luminescence assay relative to control; assay type: cell-based; conditions: human
[19] = target: T4, Protein-serine O-palmitoleoyltransferase porcupine (Homo sapiens) (UniProt Q9H237); assay: Inhibition of porcupine in HEK293T cells transfected with Wnt3A-expressing vector assessed as suppression of Wnt/beta-catenin signaling at 5 uM after 22 hrs by Super-top flash reporter gene assay relative to control; assay type: cell-based
T4 sequence (whole entry): T3 sequence (Q9H237 whole entry)

Homo sapiens = organism: Homo sapiens; assay: Inhibition of Wnt/beta-catenin signaling in HEK293T cells after 22 hrs in presence of Wnt3A-conditioned medium by Super-top flash reporter gene assay; assay type: cell-based
HEK-293T [20] = assay: Upregulation of renilla luciferase expression in HEK293T cells transfected with Wnt3A-expressing vector up to 5 uM after 22 hrs by luminescence assay relative to control; assay type: cell-based; conditions: human
[21] = target: T5, Casein kinase I isoform delta (Homo sapiens, UniProt P48730); assay: Inhibition of CK1delta isolated from human PANC1 cells at 5 uM using GST-tagged p53 (1 to 64 residues) as substrate after 30 mins in presence of [gamma-32P]-ATP by Cherenkov counting method
[22] = target: T5, Casein kinase I isoform delta; conditions: 125 uM
[23] = target: Casein kinase I isoform delta (Rattus norvegicus) (UniProt Q06486); assay: Inhibition of full-length rat GST-tagged CK1delta assessed as residual activity at 10 uM using alpha-casein as substrate after 30 mins in presence of [gamma-32P]-ATP by Cherenkov counting method
[24] = target: Casein kinase I isoform delta (Rattus norvegicus) (UniProt Q06486); assay: Inhibition of rat recombinant CK1delta kinase domain assessed as residual activity at 10 uM using alpha-casein as substrate after 30 mins in presence of [gamma-32P]-ATP by Cherenkov counting method
[25] = target: T6, Casein kinase I delta/epsilon (Homo sapiens) (UniProt P48730+P49674); assay: Inhibition of CK1delta/epsilon in HEK293T cells assessed as suppression of Wnt/beta-catenin signaling up to 0.1 uM after 22 hrs in presence of Wnt3A-conditioned medium by Super-top flash reporter gene assay; assay type: cell-based
[26] = target: T6, Casein kinase I delta/epsilon (Homo sapiens); assay: Inhibition of CK1delta/epsilon in HEK293T cells transfected with Wnt3A-expressing vector assessed as suppression of Wnt/beta-catenin signaling up to 0.1 uM after 22 hrs by Super-top flash reporter gene assay; assay type: cell-based

Casein kinase I isoform delta (Rattus norvegicus, UniProt Q06486, M82F), sequence (Q06486 whole entry M82F, canonical isoform): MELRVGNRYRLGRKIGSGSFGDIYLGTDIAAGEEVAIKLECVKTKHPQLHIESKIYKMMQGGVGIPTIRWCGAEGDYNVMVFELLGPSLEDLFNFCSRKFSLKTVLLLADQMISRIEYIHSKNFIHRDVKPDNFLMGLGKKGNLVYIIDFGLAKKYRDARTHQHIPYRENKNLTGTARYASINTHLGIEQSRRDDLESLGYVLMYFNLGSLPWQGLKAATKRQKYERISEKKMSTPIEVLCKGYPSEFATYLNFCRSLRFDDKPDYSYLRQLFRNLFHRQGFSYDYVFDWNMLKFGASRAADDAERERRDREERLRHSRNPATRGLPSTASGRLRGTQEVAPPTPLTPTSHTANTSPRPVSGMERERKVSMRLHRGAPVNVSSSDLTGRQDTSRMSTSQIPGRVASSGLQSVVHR
Casein kinase I isoform epsilon, sequence (P49674 whole entry, canonical isoform): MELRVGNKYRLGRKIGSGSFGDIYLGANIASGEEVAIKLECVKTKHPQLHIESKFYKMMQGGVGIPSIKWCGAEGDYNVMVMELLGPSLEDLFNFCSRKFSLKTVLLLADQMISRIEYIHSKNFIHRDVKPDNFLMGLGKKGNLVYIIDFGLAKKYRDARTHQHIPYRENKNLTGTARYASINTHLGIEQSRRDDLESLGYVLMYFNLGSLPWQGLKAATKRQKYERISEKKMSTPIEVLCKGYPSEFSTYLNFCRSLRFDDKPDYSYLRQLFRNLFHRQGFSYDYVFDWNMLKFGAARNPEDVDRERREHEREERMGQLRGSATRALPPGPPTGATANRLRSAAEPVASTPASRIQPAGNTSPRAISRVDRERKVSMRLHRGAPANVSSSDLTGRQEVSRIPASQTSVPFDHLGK
Casein kinase I isoform delta (Rattus norvegicus), sequence (Q06486 whole entry, looked up, the tested form may be a part, canonical isoform): as the sequence (Q06486 whole entry M82F, canonical isoform) above, with F82M counted along it
T1 sequence (Q06486 whole entry, canonical isoform): as the sequence (Q06486 whole entry M82F, canonical isoform) above, with F82M counted along it
Casein kinase I isoform gamma-3 (Homo sapiens), sequence (Q9Y6M4 whole entry, looked up, the tested form may be a part, canonical isoform): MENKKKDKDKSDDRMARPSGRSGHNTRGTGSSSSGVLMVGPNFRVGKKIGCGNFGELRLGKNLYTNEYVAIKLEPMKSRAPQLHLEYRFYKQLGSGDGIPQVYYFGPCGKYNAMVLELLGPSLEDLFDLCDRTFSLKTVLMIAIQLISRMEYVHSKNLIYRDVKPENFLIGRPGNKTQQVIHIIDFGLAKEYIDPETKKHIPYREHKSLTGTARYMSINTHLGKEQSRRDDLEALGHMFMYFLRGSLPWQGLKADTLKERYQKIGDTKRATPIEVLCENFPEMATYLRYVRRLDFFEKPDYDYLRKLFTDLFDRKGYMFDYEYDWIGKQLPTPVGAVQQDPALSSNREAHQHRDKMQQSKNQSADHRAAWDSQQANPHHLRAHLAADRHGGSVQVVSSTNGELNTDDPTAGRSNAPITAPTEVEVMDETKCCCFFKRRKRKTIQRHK
T6 sequence (P48730 whole entry, looked up): as the sequence (Q06486 whole entry M82F, canonical isoform) above, with F82M, V381I counted along it
T6 sequence (P49674 whole entry, looked up): as the sequence (P49674 whole entry, canonical isoform) above
T5 sequence (P48730 whole entry, looked up, the tested form may be a part, canonical isoform): as the sequence (Q06486 whole entry M82F, canonical isoform) above, with F82M, V381I counted along it

Structure (SMILES): Cc1ccc2nc(NC(=O)CSc3nc4c(c(=O)n3Cc3ccccc3)SCC4)sc2c1
- EC50 (MIA PaCa-2): 5650 nM
- IC50 [1]: 60 nM
- Ratio IC50 [2]: 4 to 7
- EC50 (CAPAN-1): > 10000 nM
- IC50 [3]: 1660 nM
- inhibition [4]: Active
- EC50 (HEK293): > 10000 nM
- Ratio IC50 [5]: < 17
- EC50 [6]: 3100 nM
- inhibition [7]: inactive
- EC50 (PANC-1): > 10000 nM
- Ratio IC50 (Rattus norvegicus): 28
- EC50 (HT-29): > 10000 nM
- inhibition [8]: Active
- EC50 (SW-620): 8520 nM
- inhibition [9]: Active
- IC50 [10]: 420 nM
- Ratio IC50 [11]: 4
- EC50 [12]: > 10000 nM
- inhibition [13]: Active
- IC50 [14]: 7340 nM

Structure (SMILES): O=C(CSc1nc2c(c(=O)n1-c1ccccc1)SCC2)Nc1nc2ccc(C(F)(F)F)cc2s1
- IC50 [1]: 210 nM
- inhibition [15]: Active
- IC50 [3]: 660 nM
- inhibition [16]: Active
- IC50 [10]: 400 nM
- IC50 [14]: 4120 nM

Structure (SMILES): Cc1cc(-c2ccc(CC(=O)Nc3ccc(-c4cccnc4)cc3)cc2)ccn1
- IC50 [17]: < 1 nM
- fold change (FC) (HEK-293T [18]): <= 1.5
- Imax [19]: 1.1%
- inhibition (Homo sapiens): inactive
- fold change (FC) (HEK-293T [20]): <= 1.3

Structure (SMILES): O=C(CSc1nc2c(c(=O)n1Cc1cccc(C(F)(F)F)c1)SCC2)Nc1nc2ccc(C(F)(F)F)cc2s1
- inhibition [15]: Active
- IC50 [3]: 1030 nM
- inhibition [16]: Active

Structure (SMILES): COc1cc(OC)c(/C=C2/C(=O)Nc3ccccc32)c(OC)c1
- inhibition [21]: 40%

Structure (SMILES): Nc1nccc(-c2c(-c3ccc(F)cc3)ncn2C2CCCCC2)n1
- inhibition [22]: 40%

Structure (SMILES): COc1ccccc1-n1c(SCC(=O)Nc2nc3ccc(C)cc3s2)nc2c(c1=O)SCC2
- EC50 (MIA PaCa-2): 230 nM
- IC50 [1]: 140 nM
- Ratio IC50 [2]: 4 to 7
- EC50 (CAPAN-1): 230 nM
- IC50 [3]: 1060 nM
- Activity [23]: 25%
- EC50 (HEK293): 280 nM
- Ratio IC50 [5]: < 17
- EC50 [6]: 580 nM
- Activity [24]: 22%
- EC50 (PANC-1): 230 nM
- EC50 (HT-29): 340 nM
- EC50 (SW-620): 230 nM
- IC50 [10]: 1020 nM
- EC50 [12]: 930 nM
- IC50 [14]: 7070 nM

Structure (SMILES): Fc1cccc(-n2cnc3c(NCc4nc5c(F)c(F)ccc5[nH]4)nc(N4CCOCC4)nc32)c1
- inhibition [25]: Dose-dependent effect
- inhibition [26]: Dose-dependent effect

Structure (SMILES): Cc1ccc2nc(NC(=O)CSc3nc4c(c(=O)n3-c3ccc(F)cc3)SCC4)sc2c1
- EC50 (MIA PaCa-2): 5340 nM
- IC50 [1]: 150 nM
- Ratio IC50 [2]: 4 to 7
- EC50 (CAPAN-1): > 10000 nM
- IC50 [3]: 1890 nM
- inhibition [4]: Active
- EC50 (HEK293): 3500 nM
- Ratio IC50 [5]: < 17
- EC50 [6]: 5070 nM
- inhibition [7]: inactive
- EC50 (PANC-1): 4870 nM
- EC50 (HT-29): > 10000 nM
- inhibition [8]: Active
- EC50 (SW-620): 8620 nM
- inhibition [9]: Active
- IC50 [10]: 550 nM
- Ratio IC50 [11]: 4
- EC50 [12]: > 10000 nM
- IC50 [14]: > 10000 nM

Structure (SMILES): O=C(CSc1nc2c(c(=O)n1Cc1ccc(OC(F)(F)F)cc1)SCC2)Nc1nc2ccc(C(F)(F)F)cc2s1
- inhibition [15]: Active
- IC50 [3]: 700 nM
- inhibition [16]: Active

Structure (SMILES): O=C(CSc1nc2c(c(=O)n1Cc1ccccc1)SCC2)Nc1nc2ccc(C(F)(F)F)cc2s1
- IC50 [1]: 270 nM
- inhibition [15]: Active
- IC50 [3]: 1060 nM
- inhibition [16]: Active
- IC50 [10]: 520 nM
- IC50 [14]: 1410 nM

Structure (SMILES): O=C(CSc1nc2c(c(=O)n1Cc1ccc(C(F)(F)F)cc1)SCC2)Nc1nc2ccc(C(F)(F)F)cc2s1
- inhibition [15]: Active
- IC50 [3]: 330 nM
- inhibition [16]: Active

Structure (SMILES): COc1cccc(Cn2c(SCC(=O)Nc3nc4ccc(C(F)(F)F)cc4s3)nc3c(c2=O)SCC3)c1OC
- IC50 [1]: 210 nM
- inhibition [15]: Active
- IC50 [3]: 760 nM
- inhibition [16]: Active
- IC50 [10]: 230 nM
- IC50 [14]: 1230 nM
